“Also recorded” adds a separate entry of the source.
Assays:
[1] = system: quiescent fibroblasts (Balb/c 3T3); assay: toxicity analysis for quiescent fibroblasts (culture in the absence of aFGF); assay type: cell-based; settings: for toxicity for quiescent fibroblasts: within the concentration range tested / in which aFGF mitogenic activity is inhibited
aFGF = aFGF (Homo sapiens, UniProt P05230); assay: aFGF-induced mitogenesis inhibition test on fibroblasts in culture; assay type: cell-based; design: the aFGF of 139 amino acid residues; settings: for aFGF-induced mitogenic activity inhibition (in words): Balb/c 3T3 fibroblasts, 60 hours, MIHS 20 μg/mL, aFGF 0.32 ng/mL; for aFGF-induced mitogenic inhibitory activity compared between compounds (stereochemical guidelines): C-9 and C-17 vs. C-14 and C-18, C-10, C-11, C-13 vs. C-9, 2-NMS vs 1-NMS series
[2] = listed as sodium 4-hydroxy-6-amino-2-naphthalenesulfonate
[3] = listed as sodium 5-acetylamino-2-naphthalenesulfonate

Sequence of aFGF (P05230 16-155 limits assumed): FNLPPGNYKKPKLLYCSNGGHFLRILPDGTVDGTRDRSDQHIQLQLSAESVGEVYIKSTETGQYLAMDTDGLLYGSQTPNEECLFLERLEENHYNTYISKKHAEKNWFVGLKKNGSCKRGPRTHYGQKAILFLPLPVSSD

SMILES	toxicity for quiescent fibroblasts [1]	aFGF-induced mitogenic activity inhibition (in words) (aFGF)	also measured
O=S(=O)(O)c1ccc2ccccc2c1 [Compound C-8, 2-naphthalenesulfonic acid]	toxic	inhibits aFGF-induced mitogenic activity at lower concentrations than compound C-1	aFGF-induced mitogenic activity inhibition (in words) (aFGF; listed as 2-NMS): inhibits aFGF-induced mitogenic activity
CN(C)c1cccc2c(S(=O)(=O)[O-])cccc12.[Na+] [Compound C-6, sodium 5-dimethylamino-1-naphthalenesulfonate]	certain toxic effect	aFGF-induced mitogenic activity inhibitors	–
O=S(=O)([O-])c1ccc2ncccc2c1.[Na+] [Compound C-23, sodium 6-quinolinesulfonate]	toxic effect	potent aFGF-induced mitogenic activity inhibitor	–
Nc1ccc(S(=O)(=O)[O-])cc1.[Na+] [Compound C-20, sodium 4-aminobenzenesulfonate]	innocuous	little aFGF-induced mitogenesis inhibitory activity	–
CN(C)Cc1cc2cc(S(=O)(=O)O)ccc2[nH]1 [Compound C-25, 2-[(dimethylamino)methyl]-1H-indole-5-sulfonic acid]	–	–	mitogenesis inductor / tumorigenic effect on quiescent fibroblasts in the absence of aFGF [1]: certain tumorigenic effect
O=C(Nc1cccc2cc(S(=O)(=O)[O-])ccc12)c1ccccc1.[Na+] [Compound C-11, sodium 5-benzoylamino-2-naphthalenesulfonate]	–	aFGF-induced mitogenic activity inhibitors	aFGF-induced mitogenic inhibitory activity compared between compounds (stereochemical guidelines) (aFGF): significant reduction
Nc1ccc2cc(S(=O)(=O)[O-])cc(O)c2c1.[Na+] [Compound C-17, sodium 6-amino-4-hydroxy-2-naphthalenesulfonate]	innocuous	slightly less than that of C-9	toxicity for quiescent fibroblasts [1, 2]: not toxic; aFGF-induced mitogenic activity inhibition (in words) (aFGF; [2]): potent aFGF-induced mitogenic activity inhibitors; aFGF-induced mitogenic inhibitory activity compared between compounds (stereochemical guidelines) (aFGF): better aFGF-induced mitogenic activity inhibitors
O=S(=O)([O-])c1cccc2cccnc12.[Na+] [Compound C-24, sodium 8-quinolinesulfonate]	innocuous	little aFGF-induced mitogenesis inhibitory activity	–
CC(=O)Nc1cccc2cc(S(=O)(=O)[O-])ccc12.[Na+] [Compound C-10, sodium 5-acetylamino-2-naphthalenesulfonate]	innocuous	slightly less than that of C-9	toxicity for quiescent fibroblasts [1, 3]: not toxic; aFGF-induced mitogenic activity inhibition (in words) (aFGF; [3]): potent aFGF-induced mitogenic activity inhibitors; aFGF-induced mitogenic inhibitory activity compared between compounds (stereochemical guidelines) (aFGF): does not substantially alter the inhibitory activity
Nc1ccc2c(O)cc(S(=O)(=O)[O-])cc2c1.[Na+] [Compound C-18, sodium 7-amino-4-hydroxy-2-naphthalenesulfonate]	–	aFGF-induced mitogenic activity inhibitors	–
CC(=O)Nc1ccc2c(O)cc(S(=O)(=O)[O-])cc2c1.[Na+] [Compound C-19, sodium 7-acetylamino-4-hydroxy-2-naphthalenesulfonate]	–	–	mitogenesis inductor / tumorigenic effect on quiescent fibroblasts in the absence of aFGF [1]: certain tumorigenic effect
O=C(CCCCC(=O)Nc1cccc2cc(S(=O)(=O)O)ccc12)Nc1cccc2cc(S(=O)(=O)[O-])ccc12.[Na+] [Compound C-13]	–	effective aFGF-induced mitogenesis activity inhibitors	mitogenesis inductor / tumorigenic effect on quiescent fibroblasts in the absence of aFGF [1]: high mitogenesis inductor activity; aFGF-induced mitogenic inhibitory activity compared between compounds (stereochemical guidelines) (aFGF): significant reduction
Nc1c(O)cc(S(=O)(=O)[O-])c2ccccc12.[Na+] [Compound C-7, sodium 4-amino-3-hydroxy-1-naphthalenesulfonate]	certain toxic effect	aFGF-induced mitogenic activity inhibitors; also recorded: best aFGF-induced mitogenic activity inhibitory activity	proliferation of quiescent fibroblasts cultured in the absence of aFGF ([1]; at concentrations exceeding 0.2 mM): significantly increases; IC50 rank among the tested compounds (aFGF; aFGF-induced mitogenesis): lowest IC50
Nc1ccc(S(=O)(=O)[O-])c2ccccc12.[Na+] [Compound C-3, sodium 4-amino-1-naphthalenesulfonate]	not toxic	low aFGF-induced mitogenesis inhibitory activity	–
NCc1ccc(S(=O)(=O)[O-])cc1.[Na+] [Compound C-21, sodium 4-(aminomethyl)benzenesulfonate]	–	–	mitogenesis inductor / tumorigenic effect on quiescent fibroblasts in the absence of aFGF [1]: certain tumorigenic effect
CC(=O)Nc1ccc(S(=O)(=O)[O-])c2ccccc12.[Na+] [Compound C-4, sodium 4-acetylamino-1-naphthalenesulfonate]	certain toxic effect	aFGF-induced mitogenic activity inhibitors	–
O=C(O)c1ccccc1C(=O)Nc1cccc2cc(S(=O)(=O)O)ccc12.[Na] [Compound C-12, sodium 2-{[(6-sulfo-1-naphthyl)amino]carbonyl}benzoic acid]	–	effective aFGF-induced mitogenesis activity inhibitors	mitogenesis inductor / tumorigenic effect on quiescent fibroblasts in the absence of aFGF [1]: high mitogenesis inductor activity
Nc1cccc2ccc(S(=O)(=O)[O-])cc12.[Na+] [Compound C-14, sodium 8-amino-2-naphthalenesulfonate]	certain toxic effect	aFGF-induced mitogenic activity inhibitors	–
O=C(Nc1ccc(S(=O)(=O)[O-])c2ccccc12)c1ccccc1.[Na+] [Compound C-5, sodium 4-benzoylamino-1-naphthalenesulfonate]	not toxic	low aFGF-induced mitogenesis inhibitory activity	–
O=C(Nc1cccc2ccc(S(=O)(=O)[O-])cc12)c1ccccc1.[Na+] [Compound C-16, sodium 8-benzoylamino-2-naphthalenesulfonate]	innocuous	aFGF-induced mitogenic activity inhibitors	–
Cc1ccc2ccccc2c1S(=O)(=O)[O-].[Na+] [Compound C-2, sodium 2-methyl-1-naphthalenesulfonate]	certain toxic effect	aFGF-induced mitogenic activity inhibitors	–
CC(=O)Nc1cccc2ccc(S(=O)(=O)[O-])cc12.[Na+] [Compound C-15, sodium 8-acetylamino-2-naphthalenesulfonate]	innocuous	aFGF-induced mitogenic activity inhibitors	–
